Drawing on patent publication US9840478B2 (MERCK SHARP & DOHME CORP., priority 2013, dated 2017), this text covers IC50 for 23 compounds.

In one assay the test system is HIV-1 (H9IIIB strain). Kind of assay: Cell-based HIV infection assay using a reporter (Cell-Based), MT4-GFP cells. The note with it: Human immunodeficiency virus 1, MT4-GFP cells infected with HIV-1 H9IIIB; 50% normal human serum; mean of at least two independent experiments; read-out: Cell-based IP. The method in brief:
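IC50 from 4-parameter dose-response of % viral growth inhibition, using the 48 h/24 h infected-cell ratio scaled between DMSO and a protease/integrase/NNRTI triple-drug control. Assay used MT4 cells with HIV-LTR-GFP reporter, pre-infected 24 h with HIV-1 H9IIIB, in 50% normal human serum.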
Regarding `CC(C)[C@H](c1ccc(Cl)cc1)[C@H](N)C(=O)Nc1cccc(F)c1CC[C@H]1CNC[C@@H](C)N1S(=O)(=O)c1ccccc1` [Example 110, (βR)-4-chloro-N-(3-fluoro-2-{2-[(2S,6R)-6-methyl-1-(phenylsulfonyl)piperazin-2-yl]ethyl}phenyl)-β-(1-methylethyl)-L-phenylalaninamide], the IC50 came out at 74 nM. In the case of `O=C(Nc1cccc(F)c1CC[C@H]1CNCCN1S(=O)(=O)c1ccccc1)[C@H](O)C(c1ccccc1)c1ccccc1` (single isomer, unassigned) [Example 365], the IC50 came out at 68 nM. Take `COC(=O)N[C@H](C(=O)Nc1cccc(F)c1CC[C@H]1CNCC(COC(C)C)N1S(=O)(=O)C1CC1)[C@@H](c1ccc(F)cc1)c1cc(F)cc(F)c1` (stereo partly drawn) [Example 237, (βS)-N-[2-(2-{(2S)-1-(cyclopropylsulfonyl)-6-[(1-methylethoxy)methyl]piperazin-2-yl}ethyl)-3-fluorophenyl]-β-(3,5-difluorophenyl)-4-fluoro-Nα-(methoxycarbonyl)-L-phenylalaninamide]: the IC50 came to 30 nM. As to `CC1(C)CC([C@H](c2ccc(Cl)cc2)[C@H](N)C(=O)Nc2cccc(F)c2CC[C@H]2CNCCN2S(=O)(=O)c2ccccc2)CCO1` (stereo partly drawn) [Example 74, (βR)-4-chloro-β-(2,2-dimethyltetrahydro-2H-pyran-4-yl)-N-(3-fluoro-2-{2-[(2S)-1-(phenylsulfonyl)piperazin-2-yl]ethyl}phenyl)-L-phenylalaninamide], the IC50 worked out at 24 nM. In the case of `N[C@H](C(=O)Nc1cccc(F)c1CC[C@H]1CNCCN1S(=O)(=O)c1ccccc1)[C@@H](c1ccc(Cl)cc1)C1CCS(=O)(=O)CC1` [Example 41, (βR)-4-chloro-β-(1,1-dioxidotetrahydro-2H-thiopyran-4-yl)-N-(3-fluoro-2-{2-[(2S)-1-(phenylsulfonyl)piperazin-2-yl]ethyl}phenyl)-L-phenylalaninamide], the IC50 was 34 nM. On the same count and under the same terms, the value for `CC(C)[C@H](c1ccc(Cl)cc1)[C@H](N)C(=O)Nc1cncc(F)c1CC[C@H]1CNC[C@@H](C)N1S(=O)(=O)c1ccccc1` [Example 254, (βR)-4-chloro-N-(5-fluoro-4-{2-[(2S,6R)-6-methyl-1-(phenylsulfonyl)piperazin-2-yl]ethyl}pyridin-3-yl)-β-(1-methylethyl)-L-phenylalaninamide] was 16 nM.

Turning to `COC(=O)N[C@H](C(=O)N[C@H]1CCCC[C@@H]1CC[C@H]1CNCCN1S(=O)(=O)c1ccccc1)C(c1ccc(F)cc1)c1ccc(F)cc1` [Example 354, methyl ((S)-1,1-bis(4-fluorophenyl)-3-oxo-3-(((1S,2R)-2-(2-((S)-1-(phenylsulfonyl)piperazin-2-yl)ethyl)cyclohexyl)amino)propan-2-yl)carbamate], the IC50 was determined as 22 nM. With `O=C(C[C@@H](c1ccc(F)cc1)c1cc(F)cc(F)c1)Nc1cncc(F)c1CC[C@H]1CNCCN1S(=O)(=O)Cc1ccc(C(F)(F)F)cc1` [Example 310, (3S)-3-(3,5-difluorophenyl)-3-(4-fluorophenyl)-N-(5-fluoro-4-{2-[(2S)-1-{[4-(trifluoromethyl)benzyl]sulfonyl}piperazin-2-yl]ethyl}pyridin-3-yl)propanamide], the IC50 came out at 1700 nM. On to `CC[C@@H]1CNC[C@H](CCc2c(F)cccc2NC(=O)[C@@H](NC(=O)OC)[C@@H](c2ccc(F)cc2)c2cc(F)cc(F)c2)N1S(C)(=O)=O` [Example 270, (βS)-β-(3,5-difluorophenyl)-N-(2-{2-[(2S,6R)-6-ethyl-1-(methylsulfonyl)piperazin-2-yl]ethyl}-3-fluorophenyl)-4-fluoro-Nα-(methoxycarbonyl)-L-phenylalaninamide], for which the IC50 turned out to be 24 nM. Turning to `C[C@@H]1CNC[C@H](CCc2c(F)cccc2NC(=O)[C@@H](N)[C@@H](c2ccc(Cl)cc2)C2CCOCC2)N1S(=O)(=O)c1ccc(C(F)F)cc1` [Example 264, (βR)-4-chloro-N-(2-{2-[(2S,6R)-1-{[4-(difluoromethyl)phenyl]sulfonyl}-6-methylpiperazin-2-yl]ethyl}-3-fluorophenyl)-β-(tetrahydro-2H-pyran-4-yl)-L-phenylalaninamide], the IC50 was 69 nM. Take `C[C@H]1CNC[C@H](CCc2c(F)cncc2NC(=O)[C@@H](N)[C@@H](c2ccc(Cl)cc2)c2cccc(F)c2)N1S(=O)(=O)C1CC1` [Example 166, (βS)-4-chloro-N-(4-{2-[(2S,6S)-1-(cyclopropylsulfonyl)-6-methylpiperazin-2-yl]ethyl}-5-fluoropyridin-3-yl)-β-(3-fluorophenyl)-L-phenylalaninamide]: the IC50 came out at 29 nM. Same read-out and setting: then `CC(C)CC1CCCN1S(=O)(=O)N1CCNC[C@@H]1CCc1c(F)cncc1NC(=O)C[C@@H](c1ccc(F)cc1)c1cc(F)cc(F)c1` (stereo partly drawn) [Example 337, (3S)-3-(3,5-difluorophenyl)-N-(5-fluoro-4-{2-[(2S)-1-{[2-(2-methylpropyl)pyrrolidin-1-yl]sulfonyl}piperazin-2-yl]ethyl}pyridin-3-yl)-3-(4-fluorophenyl)propanamide], with 130 nM.

Regarding `C[C@@H]1CNC[C@H](CCc2c(F)cncc2NC(=O)[C@@H](N)[C@@H](c2ccc(F)cc2)c2cc(F)cc(F)c2)N1S(=O)(=O)c1ccccc1` [Example 13, (βS)-β-(3,5-difluorophenyl)-4-fluoro-N-(5-fluoro-4-{2-[(2S,6R)-6-methyl-1-(phenylsulfonyl)piperazin-2-yl]ethyl}pyridin-3-yl)-L-phenylalaninamide], the IC50 worked out at 20 nM.

Consider `COC(=O)N[C@H](C(=O)Nc1cncc(F)c1CC[C@H]1CNC[C@H](C)N1S(=O)(=O)c1ccc(OC)cc1)[C@@H](c1ccc(Cl)cc1)C1CCOCC1` [Example 136, (βR)-4-chloro-N-[5-fluoro-4-(2-{(2S,6S)-1-[(4-methoxyphenyl)sulfonyl]-6-methylpiperazin-2-yl}ethyl)pyridin-3-yl]-Nα-(methoxycarbonyl)-β-(tetrahydro-2H-pyran-4-yl)-L-phenylalaninamide], for which the IC50 was 10 nM. Turning to `COC(=O)N[C@H](C(=O)Nc1cccc(F)c1CC[C@H]1CNC[C@H](C)N1S(=O)(=O)C1CC1)[C@@H](c1cccc(Cl)c1)C(C)C` [Example 216, (βR)-3-chloro-N-(2-{2-[(2S,6S)-1-(cyclopropylsulfonyl)-6-methylpiperazin-2-yl]ethyl}-3-fluorophenyl)-Nα-(methoxycarbonyl)-β-(1-methylethyl)-L-phenylalaninamide], the IC50 was 1300 nM. Regarding `COC(=O)N[C@H](C(=O)NC1CCCC1CC[C@H]1CNCCN1S(C)(=O)=O)C(c1ccc(F)cc1)c1ccc(F)cc1` (stereo partly drawn) [Example 352, 4-fluoro-beta-(4-fluorophenyl)-Nalpha-(methoxycarbonyl)-N-(2-{2-[(2S)-1-(methylsulfonyl)piperazin-2-yl]ethyl}cyclopentyl)-L-phenylalaninamide], the IC50 was determined as 190 nM. Same read-out and setting: then `COC(=O)N[C@H](C(=O)Nc1cccc(F)c1CC[C@H]1CNC[C@H](C)N1S(=O)(=O)C1CC1)[C@H](c1cccc(F)c1)c1cccc(Cl)c1` [Example 175, (βR)-3-chloro-N-(2-{2-[(2S,6S)-1-(cyclopropylsulfonyl)-6-methylpiperazin-2-yl]ethyl}-3-fluorophenyl)-β-(3-fluorophenyl)-Nα-(methoxycarbonyl)-L-phenylalaninamide], with 110 nM; and `COC(=O)N[C@H](C(=O)Nc1cccc(F)c1CC[C@H]1CNC[C@@H](C)N1S(=O)(=O)c1ccccc1)[C@@H](c1ccc(F)c(F)c1)C1CCOCC1` [Example 293, (βR)-3,4-difluoro-N-(3-fluoro-2-{2-[(2S,6R)-6-methyl-1-(phenylsulfonyl)piperazin-2-yl]ethyl}phenyl)-Nα-(methoxycarbonyl)-β-(tetrahydro-2H-pyran-4-yl)-L-phenylalaninamide], with 8.7 nM; and `CS(=O)(=O)N1CCNC[C@@H]1CCc1c(F)cccc1NC(=O)[C@@H](N)[C@@H](c1ccc(Cl)cc1)C1CCOCC1` [Example 65, (βR)-4-chloro-N-(3-fluoro-2-{2-[(2S)-1-(methylsulfonyl)piperazin-2-yl]ethyl}phenyl)-β-(tetrahydro-2H-pyran-4-yl)-L-phenylalaninamide], with 120 nM.

As for `COC(=O)N[C@H](C(=O)Nc1cncc(F)c1CC[C@H]1CNC[C@H](C)N1S(=O)(=O)c1ccccc1Cl)[C@@H](c1ccc(F)cc1)c1cc(F)cc(F)c1` [Example 272, (βS)-N-[4-(2-{(2S,6S)-1-[(2-chlorophenyl)sulfonyl]-6-methylpiperazin-2-yl}ethyl)-5-fluoropyridin-3-yl]-β-(3,5-difluorophenyl)-4-fluoro-Nα-(methoxycarbonyl)-L-phenylalaninamide], the IC50 was 49 nM.

Regarding `C[C@H]1CNC[C@H](CCc2c(F)cccc2NC(=O)[C@@H](N)[C@@H](Cc2ccc(F)cc2)c2ccc(Cl)cc2)N1S(=O)(=O)c1ccc(OC(F)(F)F)cc1` [Example 220, (βS)-4-chloro-β-(4-fluorobenzyl)-N-(3-fluoro-2-{2-[(2S,6S)-6-methyl-1-{[4-(trifluoromethoxy)phenyl]sulfonyl}piperazin-2-yl]ethyl}phenyl)-L-phenylalaninamide], the IC50 is 780 nM. `C[C@@H]1CNC[C@H](CCc2c(F)cccc2NC(=O)[C@@H](N)C(c2cccc(F)c2)c2cccc(F)c2)N1S(=O)(=O)C1CC1` [Example 181, N-(2-{2-[(2S,6R)-1-(cyclopropylsulfonyl)-6-methylpiperazin-2-yl]ethyl}-3-fluorophenyl)-3-fluoro-β-(3-fluorophenyl)-L-phenylalaninamide]: the IC50 was 170 nM.

The assay is the same for the next values; noted with them: MT4-GFP cells infected with HIV-1 H9IIIB; 50% normal human serum; mean of at least two independent experiments; read-out: Cell-based IP.
Regarding “methyl ((S)-1-((2R,4r,6S)-4- (4-chlorophenyl)-2,6- dimethyltetrahydro-2H- pyran-4-yl)-2-((3-fluoro-2-(2- ((2S,6S)-6-methyl-1- (phenylsulfonyl)piperazin-2- yl)ethyl)phenyl)amino)-2- oxoethyl)carbamate [Example 299]”, the IC50 was 16 nM.
